Laboratory results as given in US20260306527A1, “PRMT INHIBITOR COMPOUNDS AND THE USES THEREOF” (Purdue Research Foundation, priority 2023, published 2026).

Target: PRMT5 (Homo sapiens, UniProt O14744)
Experiment: selectivity of YD1113 on PRMT panel, PRMT5
Assay type: biochemical
Settings: read-out: IC50 value PRMT5
Protocol: The selectivity of compounds YD1113 and YD1290 on PRMTs were performed by Reaction Biology Corp.
Next, the selectivity of YD1113 was investigated on a panel of PRMTs at 10 μM.

Sequence of PRMT5 (O14744 whole entry, species assumed): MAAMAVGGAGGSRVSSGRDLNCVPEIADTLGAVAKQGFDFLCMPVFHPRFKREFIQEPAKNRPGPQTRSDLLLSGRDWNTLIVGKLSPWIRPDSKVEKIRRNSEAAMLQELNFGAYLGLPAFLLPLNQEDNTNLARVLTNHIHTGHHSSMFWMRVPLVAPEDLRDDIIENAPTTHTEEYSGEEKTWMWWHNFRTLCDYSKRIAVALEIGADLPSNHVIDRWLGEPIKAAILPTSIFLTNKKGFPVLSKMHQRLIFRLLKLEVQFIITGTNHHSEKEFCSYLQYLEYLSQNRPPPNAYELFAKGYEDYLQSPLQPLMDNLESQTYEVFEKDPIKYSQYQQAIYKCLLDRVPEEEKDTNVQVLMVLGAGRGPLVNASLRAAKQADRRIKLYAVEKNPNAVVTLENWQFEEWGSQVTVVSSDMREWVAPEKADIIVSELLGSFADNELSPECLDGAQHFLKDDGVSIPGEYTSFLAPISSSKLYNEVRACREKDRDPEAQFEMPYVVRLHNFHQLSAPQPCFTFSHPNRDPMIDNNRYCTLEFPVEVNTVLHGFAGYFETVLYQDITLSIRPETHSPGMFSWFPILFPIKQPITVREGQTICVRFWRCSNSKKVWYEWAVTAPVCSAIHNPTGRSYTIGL
Sequence of PRMT5 (Q9BQA1 whole entry partner, species assumed): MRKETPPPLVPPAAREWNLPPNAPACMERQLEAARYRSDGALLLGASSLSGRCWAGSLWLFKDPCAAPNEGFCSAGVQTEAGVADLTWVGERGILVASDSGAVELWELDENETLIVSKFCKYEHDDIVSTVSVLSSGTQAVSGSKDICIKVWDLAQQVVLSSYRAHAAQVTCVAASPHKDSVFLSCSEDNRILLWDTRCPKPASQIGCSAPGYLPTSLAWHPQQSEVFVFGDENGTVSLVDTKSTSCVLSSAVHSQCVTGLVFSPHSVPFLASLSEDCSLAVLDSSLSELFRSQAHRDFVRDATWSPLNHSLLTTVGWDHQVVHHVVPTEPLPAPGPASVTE

## Nc1ncnc2c1ncn2[C@@H]1O[C@H](CSCCNC(=O)NCc2ccccc2)[C@@H](O)[C@H]1O [Compound 7a, 1-(2-((((2S,3S,4R,5R)-5-(6-amino-9H-purin-9-yl)-3,4-dihydroxytetrahydrofuran-2-yl)methyl)thio)ethyl)-3-benzylurea]
  IC50: 0.351 µM
